Assay results from ChEMBL document CHEMBL3108723, “Combatting resistant bacteria with the help of Beta-lactamase inhibitors” (2014).

Assays:
Type in all cases: functional
Pseudomonas aeruginosa [1] = test: Antibacterial activity against Pseudomonas aeruginosa producing PER-1 and OXA-10 beta-lactamase assessed as reduction in MIC of ceftazidime at […] by broth microdilution method relative to control
Pseudomonas aeruginosa [2] = test: Antibacterial activity against Pseudomonas aeruginosa producing AmpC beta-lactamase assessed as reduction in MIC of ceftazidime at […] by broth microdilution method relative to control
Klebsiella pneumoniae = test: Antibacterial activity against Klebsiella pneumoniae producing KPC2 beta-lactamase assessed as reduction in MIC of ceftazidime at […] by broth microdilution method relative to control

Measured: fold change (FC)

CC1=C[C@@H](C(N)=O)N2C[C@@H]1N(OS(=O)(=O)[O-])C2=O.[Na+]
4: all assays above

CC1=C[C@@H](C(=O)NCc2cc(=O)c(O)c[nH]2)N2C[C@@H]1N(OS(=O)(=O)O)C2=O
4: all assays above

COCC1=C[C@@H](COC)N2C[C@@H]1N(OS(=O)(=O)[O-])C2=O.[Na+]
4: all assays above
